Experimental data: ChEMBL document CHEMBL1141068, “Synthesis and antibacterial activity of 2,4,6-tri substituted s-triazines” (2005)
Converted amounts (≈) assume the structure as drawn.

Key:
Bacillus subtilis = experiment: Minimum inhibitory concentration against Bacillus subtilis (Gram-positive) was determined by broth dilution method; type: functional
Klebsiella aerogenes = experiment: Minimum inhibitory concentration against Klebsiella aerogenes (Gram-negative) in broth; type: functional
Bacillus sp. [1] = experiment: Minimum inhibitory concentration against Bacillus sphaericus (Gram-positive) was determined by broth dilution method; type: functional, Lysinibacillus sphaericus; conditions: Bacillus sp. (in: firmicutes)
[2] = Minimum inhibitory concentration against Chromobacterium violaceum (Gram-negative) was determined by broth dilution method; type: functional
Staphylococcus aureus = experiment: Minimum inhibitory concentration against Staphylococcus aureus (Gram-positive) was determined by broth dilution method; type: functional
Bacillus sp. [3] = experiment: Minimum inhibitory concentration against Bacillus sphaericus (Gram-positive) in broth; type: functional, Lysinibacillus sphaericus; conditions: Bacillus sp. (in: firmicutes)
Pseudomonas aeruginosa = experiment: Minimum inhibitory concentration against Pseudomonas aeruginosa (Gram-negative) by broth dilution method; type: functional

Row | SMILES | MIC (Bacillus subtilis) [µg/mL] | MIC (Klebsiella aerogenes) [µg/mL] | MIC (Bacillus sp. [1]) [µg/mL] | MIC [2] [µg/mL] | MIC (Staphylococcus aureus) [µg/mL] | MIC (Bacillus sp. [3]) [µg/mL] | MIC (Pseudomonas aeruginosa) [µg/mL]
1 | c1ccc(CNc2nc(NCc3ccccc3)nc(NCc3ccccc3)n2)cc1 | 25 (≈ 63.1 µM) | 25 (≈ 63.1 µM) | 25 (≈ 63.1 µM) | 25 (≈ 63.1 µM) | 25 (≈ 63.1 µM) | – | –
2 | Cc1ccc(CNc2nc(NCc3ccc(C)cc3)nc(NCc3ccc(C)cc3)n2)cc1 | – | – | 50 (≈ 114 µM) | – | – | – | –
3 | c1ccc(Cc2nc(Cc3ccccc3)nc(Cc3ccccc3)n2)cc1 | 12.5 (≈ 35.6 µM) | 6.25 (≈ 17.8 µM) | 6.25 (≈ 17.8 µM) | 6.25 (≈ 17.8 µM) | 12.5 (≈ 35.6 µM) | – | –
4 | COc1ccc(CNc2nc(NCc3ccc(OC)cc3)nc(NCc3ccc(OC)cc3)n2)cc1 | 25 (≈ 51.4 µM) | 25 (≈ 51.4 µM) | 12.5 (≈ 25.7 µM) | 25 (≈ 51.4 µM) | 25 (≈ 51.4 µM) | – | –
5 | COc1ccc(Cc2nc(Cc3ccc(OC)cc3)nc(Cc3ccc(OC)cc3)n2)cc1 | 50 (≈ 113 µM) | 25 (≈ 56.6 µM) | 12.5 (≈ 28.3 µM) | 25 (≈ 56.6 µM) | 25 (≈ 56.6 µM) | – | –
6 | Fc1ccc(COc2nc(OCc3ccc(F)cc3)nc(OCc3ccc(F)cc3)n2)cc1 | 25 (≈ 55.1 µM) | 25 (≈ 55.1 µM) | 12.5 (≈ 27.6 µM) | 12.5 (≈ 27.6 µM) | 25 (≈ 55.1 µM) | – | –
7 | c1ccc(COc2nc(OCc3ccccc3)nc(OCc3ccccc3)n2)cc1 | 25 (≈ 62.6 µM) | – | 25 (≈ 62.6 µM) | 25 (≈ 62.6 µM) | 25 (≈ 62.6 µM) | – | –
8 | Clc1ccc(CNc2nc(NCc3ccc(Cl)cc3)nc(NCc3ccc(Cl)cc3)n2)cc1 | – | – | 25 (≈ 50 µM) | 25 (≈ 50 µM) | – | – | –
9 | Clc1ccc(COc2nc(OCc3ccc(Cl)cc3)nc(OCc3ccc(Cl)cc3)n2)cc1 | 12.5 (≈ 24.9 µM) | 25 (≈ 49.7 µM) | 12.5 (≈ 24.9 µM) | 25 (≈ 49.7 µM) | 12.5 (≈ 24.9 µM) | – | –
10 | Fc1ccc(CNc2nc(NCc3ccc(F)cc3)nc(NCc3ccc(F)cc3)n2)cc1 | – | – | – | – | – | 50 (≈ 111 µM) | –
11 | COc1ccc(COc2nc(OCc3ccc(OC)cc3)nc(OCc3ccc(OC)cc3)n2)cc1 | 25 (≈ 51.1 µM) | 25 (≈ 51.1 µM) | 25 (≈ 51.1 µM) | 6.25 (≈ 12.8 µM) | 25 (≈ 51.1 µM) | – | –
12 | Clc1ccc(Cc2nc(Cc3ccc(Cl)cc3)nc(Cc3ccc(Cl)cc3)n2)cc1 | 25 (≈ 55 µM) | 25 (≈ 55 µM) | 25 (≈ 55 µM) | 25 (≈ 55 µM) | 25 (≈ 55 µM) | – | –
13 | CC1(C)S[C@@H]2[C@H](NC(=O)Cc3ccccc3)C(=O)N2C1C(=O)O (single isomer, unassigned) [PENICILLIN G] | 1.56 (≈ 4.67 µM) | 6.25 (≈ 18.7 µM) | 3.12 (≈ 9.35 µM) | 12.5 (≈ 37.4 µM) | 1.56 (≈ 4.67 µM) | – | 12.5 (≈ 37.4 µM)
14 | CN[C@@H]1[C@H](O[C@H]2[C@H](O[C@H]3[C@H](O)[C@@H](O)[C@H](N=C(N)N)[C@@H](O)[C@@H]3N=C(N)N)O[C@@H](C)[C@]2(O)C=O)O[C@@H](CO)[C@H](O)[C@H]1O [STREPTOMYCIN] | 6.25 (≈ 10.7 µM) | 1.56 (≈ 2.69 µM) | 12.5 (≈ 21.5 µM) | 3.12 (≈ 5.37 µM) | 6.25 (≈ 10.7 µM) | – | 3.12 (≈ 5.37 µM)
